Test results taken from patent US20050014152A1, “Drug transporter and use thereof” (priority 2001, published 2005).
Structures can show the parent of a compound that is named as a salt.

What was measured:
[1] = biological target: T1, ABCA8 (Homo sapiens, UniProt O94911); test: uptake of various isotope-labeled compounds into oocytes; assay type: cell-based
T1 construct: expressed in transfected cells; host or cells: Xenopus oocytes (stage V) microinjected with capped cRNA
Procedure: (§1) The cultured oocytes (n=10 to 20) were mixed with 2 to 3 ml of a medium and an isotope-labeled compound, and the mixture was then placed in a small incubator. Small amounts of the cells were serially sampled. Each oocyte was washed with a fresh MBS 3 times, and it was then dissolved in a 10% SDS solution at room temperature for 30 minutes. As such an isotope-labeled compound, ^14C-estradiol-β-glucuronide that is a model probe for MRP (multidrug resistance associated protein), a member of an ABC transporter family, was used. Subsequently, a scintillation cocktail (ACS2, manufactured by Amersham) was added thereto, and then, a radioactivity taken into the oocyte was measured with a liquid scintillation counter (LSC-3500, manufactured by Aloka).
Subsequently, the uptake of various isotope-labeled compounds into cells was measured. Measurement was carried out in the same manner as in Example 1 with the exception that the following compounds were used. • LTC4 (leukotriene C4): a substrate for MRP (an additive amount: 20 μM) • Taurocholic acid: a substrate for OAT (an additive amount: 100 μM) • TEA (tetraethylammonium): a substrate for OCT (an additive amount: 10 nM) • Digoxin: a substrate for MDR (an additive amount: 100 nM) • Doxorubicin: a substrate for MDR (an additive amount: 100 μg/ml) • PAH (para-aminohippuric acid): a substrate for MRP and OAT (an additive amount: 1 mM)

[2] = biological target: T1, ABCA8; test: inhibition test of the uptake of 14C-estradiol-β-glucuronide into oocytes by various compounds; assay type: cell-based; details: for uptake of 14C-estradiol-β-glucuronide decreased to: inhibitor additive amount 10 μM
Procedure: An inhibition test was carried out on the protein encoded by a DNA comprising the nucleotide sequence represented by SEQ ID NO: 2. In the test, in the above described determination of the uptake of ^14C-estradiol-β-glucuronide, various types of compounds were previously added to a reaction medium, so as to examine whether or not the uptake of ^14C-estradiol-β-glucuronide was inhibited by the compounds.

[3] = biological target: T1, ABCA8; test: uptake of 3H-indoxyl sulfate into oocytes and its inhibition by probenecid; assay type: cell-based
Procedure: as §1
(§2) The same procedure was carried out as in Example 1 with the exception that ^3H-labeled indoxyl sulfate, one of the urinary toxins, was isotope-labeled with ^3H was used as a compound in a concentration of 2 μM. At the same time, a system to which probenecid was added in a concentration of 1 mM, and a system to which water was added instead of cRNA, were also subjected to the same test.

[4] = biological target: T1, ABCA8; test: uptake of 14C-estradiol-β-glucuronide into Xenopus oocytes injected with cRNA of the drug transporter; assay type: cell-based
Procedure: A mature female Xenopus purchased from Hamamatsu Animal was bred under normal conditions. Thereafter, stage V oocytes were selected therefrom, and the cells were incubated in a modified Barth's solution (MBS) containing 88 mM NaCl, 1 mM KCl, 2.4 mM NaHCO3, 15 mM Tris-Cl, 0.3 mM CaNO3, 0.82 mM MgSO4, 0.41 mM CaCl2, 10 μg/ml penicillin and 10 μg/ml streptomycin. Thereafter, cRNA was prepared by a known method using a DNA having the nucleotide sequence represented by SEQ ID NO: 1, and an aqueous solution containing the obtained cRNA was injected into the mature Xenopus oocytes by microinjection. For such microinjection, cRNA whose 5′-terminus was capped or 50 nl of water was injected into the oocytes in vitro, using an automatic injector (IM200J, Narishige, Japan). The thus injected oocytes were cultured at 17° C. for 3 days in MBS, while exchanging the medium with a new one every day. 3 days after the culture, the oocytes expressed a drug transporter.
The used cRNA was obtained by […] of cDNA from Kazusa DNA Research Institute, which has been cloned as one of full-length cDNAs obtained from human brain and has been deposited with NCBI (National Center for Biotechnology Information, USA) under accession No. AB020629.
as §1
In this case, the concentration of ^14C-estradiol-β-glucuronide in the medium was 37 nM. […]

[5] = biological target: T1, ABCA8; test: ATP dependency of the uptake of 14C-estradiol-β-glucuronide into oocytes; assay type: cell-based; details: ATP added, up to 5 mM
Procedure: A protein encoded by a DNA comprising the nucleotide sequence represented by SEQ ID NO: 2has an ATP-binding cassette. Thus, a test was made to see ATP dependency of the uptake of ^14C-estradiol-β-glucuronide. In the test, ATP was added in the above determination of the uptake of ^14C-estradiol-[…], and the same operation was then carried out to determine the uptake of ^14C-estradiol-β-glucuronide.

[6] = substrate: O=S(=O)(O)Oc1c[nH]c2ccccc12; test: uptake of 3H-indoxyl sulfate into oocytes and its inhibition by probenecid; assay type: cell-based, human; details: other: cRNA-injected oocytes
Procedure: as §1, §2

Molecule: CCCCC/C=C\C\C=C/C=C/C=C/[C@@H](SC[C@H](NC(=O)CC[C@H](N)C(=O)O)C(=O)NCC(=O)O)[C@@H](O)CCCC(=O)O [LTC-4, leukotriene C4]
- uptake of isotope-labeled compound into oocytes ([1]; additive amount 20 μM): taken into oocytes

Molecule: CN(C)C(=O)CCSC(SCCC(=O)O)c1cccc(/C=C/c2ccc3ccc(Cl)cc3n2)c1 (centres unmarked) [MK-571]
- uptake of 14C-estradiol-β-glucuronide decreased to [2]: approximately 30%

Molecule: O=C(C(c1ccccc1)c1ccccc1)N1CCN(CC(O)COc2cccc3ncccc23)CC1 (centres unmarked) [MS-209]
- uptake of 14C-estradiol-β-glucuronide decreased to [2]: approximately 30%

Molecule: Nc1ccc(C(=O)NCC(=O)O)cc1 [PAH, para-aminohippuric acid]
- uptake of isotope-labeled compound into oocytes ([1]; additive amount 1 mM): taken into oocytes

Molecule: CC[N+](CC)(CC)CC [TEA, tetraethylammonium]
- uptake of isotope-labeled compound into oocytes ([1]; additive amount 10 nM): does not have a function to transport

Molecule: O=S(=O)(O)Oc1c[nH]c2ccccc12 [^3H-indoxyl sulfate, indoxyl sulfate]
- Vmax of uptake ([3]; cRNA-injected oocytes): 5.5 pmol/hr/egg
- uptake of 3H-indoxyl sulfate into oocytes, time course ([3]; cRNA-injected oocytes, 2 μM): linearly increased with time

Molecule: CN/C(=N/CCSCc1nc[nH]c1C)NC#N [cimetidine, Cimetidine]
- inhibitory effect on uptake of 14C-estradiol-β-glucuronide ([2]; additive amount 1 mM): no inhibitory effect

Molecule: C[C@H]1O[C@@H](O[C@H]2[C@@H](O)C[C@H](O[C@H]3[C@@H](O)C[C@H](O[C@H]4CC[C@@]5(C)[C@H](CC[C@@H]6[C@@H]5C[C@@H](O)[C@]5(C)[C@@H](C7=CC(=O)OC7)CC[C@]65O)C4)O[C@@H]3C)O[C@@H]2C)C[C@H](O)[C@@H]1O [digoxin, Digoxin]
- uptake of isotope-labeled compound into oocytes ([1]; additive amount 100 nM): excreted therefrom (or its original uptake was inhibited)
- inhibitory effect on uptake of 14C-estradiol-β-glucuronide ([2]; additive amount 0.25 mM): small extent of inhibitory effect

Molecule: COc1cccc2c1C(=O)c1c(O)c3c(c(O)c1C2=O)C[C@@](O)(C(=O)CO)C[C@@H]3O[C@H]1C[C@H](N)[C@H](O)[C@H](C)O1 [doxorubicin, Doxorubicin]
- uptake of isotope-labeled compound into oocytes ([1]; additive amount 100 μg/ml): does not have a function to transport

Molecule: C[C@@H]1Cc2c(Cl)cc(C(=O)N[C@@H](Cc3ccccc3)C(=O)O)c(O)c2C(=O)O1 [ochratoxin A, Ochratoxin A]
- inhibitory effect on uptake of 14C-estradiol-β-glucuronide ([2]; additive amount 50 μM): inhibitory effect

Molecule: CCCN(CCC)S(=O)(=O)c1ccc(C(=O)O)cc1 [probenecid, Probenecid]
- effect on uptake of 3H-indoxyl sulfate into the cells ([3]; probenecid 1 mM, 3H-indoxyl sulfate 2 μM): decreased
- inhibitory effect on uptake of 14C-estradiol-β-glucuronide ([2]; additive amount 1 mM): small extent of inhibitory effect

Molecule: C[C@H](CCC(=O)NCCS(=O)(=O)O)[C@H]1CC[C@H]2[C@@H]3[C@H](O)C[C@@H]4C[C@H](O)CC[C@]4(C)[C@H]3C[C@H](O)[C@]12C [taurocholic acid, Taurocholic acid]
- uptake of isotope-labeled compound into oocytes ([1]; additive amount 100 μM): taken into oocytes

Molecule: ^14C-estradiol-β-glucuronide
- intake of 14C-estradiol-β-glucuronide into the cells ([4]; 37 nM in the medium, about 60 minutes): 138±5.5 fmol/hr/egg
- Km ([4]; Michaelis-Menten): 30.4 µM
- Vmax of uptake ([4]; Michaelis-Menten): 8.37 pmol/hr/egg
- influence of ATP concentration on uptake into the cells [5]: increased with the increase of ATP concentration

B1: ABCA8 (Homo sapiens) (protein)
chain: MRKRKISVCQQTWALLCKNFLKKWRMKRESLMEWLNSLLLLLCLYIYPHSHQVNDFSSLLTMDLGRVDTFNESRFSVVYTPVTNTTQQIMNKVASTPFLAGKEVLGLPDEESIKEFTANYPEEIVRVTFTNTYSYHLKFLLGHGMPAKKEHKDHTAHCYETNEDVYCEVSVFWKEGFVALQAAINAAIIEITTNHSVMEELMSVTGKNMKMHSFIGQSGVITDLYLFSCIISFSSFIYYASVNVTRERKRMKALMTMMGLRDSAFWLSWGLLYAGFIFIMALFLALVIRSTQFIILSGFMVVFSLFLLYGLSLVALAFLMSILVKKSFLTGLVVFLLTVFWGCLGFTSLYRHLPASLEWILSLLSPFAFMLGMAQLLHLDYDLNSNAFPHPSDGSNLIVATNFMLAFDTCLYLALAIYFEKILPNEYGHRRPPLFFLKSSFWSQTQKTDHVALEDEMDADPSFHDSFEQAPPEFQGKEAIRIRNVTKEYKGKPDKIEALKDLVFDIYEGQITAILGHSGAGKSTLLNILSGLSVPTKGSVTIYNNKLSEMADLENLSKLTGVCPQSNVQFDFLTVRENLRLFAKIKGILPQEVDKEIFLLDEPTAGLDPFSRHQVWNLLKERKTDRVILFSTQFMDEADILADRKVFLSQGKLKCAGSSLFLKKKWGIGYHLSLQLNEICVEENITSLVKQHIPDAKLSAKSEGKLIYTLPLERTNKFPELYKDLDSYPDLGIENYGVSMTTLNEVFLKLEGKSTINESDIAILGEVQAEKADDTERLVEMEQVLSSLNKMRKTIGGVALWRQQICAIARVRLLKLKHERKALLALLLILMAGFCPLLVEYTMVKIYQNSYTWELSPHLYFLAPGQQPHDPLTQLLIINKTGASIDDFIQSVEHQNIALEVDAFGTRNGTDDPSYNGAITVCCNEKNYSFSLACNAKRLNCFPVLMDIVSNGLLGMVKPSVHIRTERSTFLENGQDNPIGFLAYIMFWLVLTSSCPPYIAMSSIDDYKNRARSQLRISGLSPSAYWFGQALVDVSLYFLVFVFIYLMSYISNFEDMLLTIIHIIQIPCAVGYSFSLIFMTYVISFIFRKGRKNSGIWSFCFYVVTVFSVAGFAFSIFESDIPFIFTFLIPPATMIGCLFLSSHLLFSSLFSEERMDVQPFLVFLIPFLHFIIFLFTLRCLEWKFGKKSMRKDPFFRISPRSSDVCQNPEEPEGEDEDVQMERVRTANALNSTNFDEKPVIIASCLRKEYAGKRKGCFSKRKNKIATRNVSFCVRKGEVLGLLGHNGAGKSTSIKVITGDTKPTAGQVLLKGSGGGDALEFLGYCPQENALWPNLTVRQHLEVYAAVKGLRKGDAEVAITRLVDALKLQDQLKSPVKTLSEGIKRKLCFVLSILGNPSVVLLDEPSTGMDPEGQQQMWQAIRATFRNTERGALLTTHYMAEAEAVCDRVAIMVSGRLRCIGSIQHLKSKFGKDYLLEMKVKNLAQVEPLHAEILRLFPQAARQERYSSLMVYKLPVEDVQPLAQAFFKLEKVKQSFDLEEYSLSQSTLEQVFLELSKEQELGDFEEDFDPSVKWKLLPQEEP
notes: expressed in transfected cells; host or cells: Xenopus oocytes (stage V) microinjected with capped cRNA
- Km [6]: 25.5 µM
